Measurements: PubChem BioAssay AID651963 (The Scripps Research Institute Molecular Screening Center, 2012)

Test system: C. elegans Q35::YFP muscle, polyQ foci count microscopy
Assay: PubChem AID 651963
Details: at 10 µM; stronger effect = lower value

COc1ccc(/C=C/C=C2C(=O)NC(=O)NC2=O)cc1
relative foci: 33.8%
